Results as given in patent US20220054576A1, “PHARMACEUTICAL COMPOSITION COMPRISING EXTRACT FROM CAMELLIA JAPONICA AS ACTIVE INGREDIENT FOR PREVENTION AND TREATMENT OF VIRAL INFECTION” (HUSCION CO., LTD., priority 2019, published 2022).

What was measured:
FluA H1N1 PR8 = assay: microbe, parasite or virus in culture; assay type: cell-based; conditions: Influenza A virus, 48 h; MDCK cells, CPE inhibition, 2 days; positive controls; read-out: Antiviral activity EC50 FluA H1N1 PR8
FluB Lee = assay: Cytopathic effect (CPE) inhibition test, Flu B Lee; conditions: read-out: Antiviral activity EC50 FluB Lee, MDCK cells, 2 days, positive controls
FluA H3N2 HongKong = assay: microbe, parasite or virus in culture; assay type: cell-based, influenza A virus; conditions: for EC50: Influenza A virus, H3N2, 48 h, MDCK cells, CPE inhibition, 2 days, positive controls, read-out: Antiviral activity EC50 FluA H3N2 HongKong
in vitro = conditions: dog

Structure (SMILES) | EC50 (FluA H1N1 PR8) | EC50 (FluB Lee) | Selectivity index FluA H3N2 HongKong (FluA H3N2 HongKong) | EC50 (FluA H3N2 HongKong) | CC50 (in vitro)
NC12CC3CC(CC(C3)C1)C2 [AMT, amantadine] | > 100 µM | > 100 µM | >43.5 | 2.3 µM | > 100 µM
NC(=O)c1ncn([C@@H]2O[C@H](CO)[C@@H](O)[C@H]2O)n1 [RBV, ribavirin] | 29.9 µM | 19.6 µM |  | 13.4 µM | 
